Results as given in patent publication US8440624B2, “Peptide whitening agents and cosmetic compositions comprising the same” (Chanel Parfums Beaute, priority 2007, dated 2013).
Where a SMILES comes first, the peptide text is derived from it. Where no end group is shown, it is not given here. The star is where a group is joined. Palmitoyl = CCCCCCCCCCCCCCCC(=O)*

What was measured:
B16 melanoma cells [1] = assay: Effect on melanogenesis (melanin, absorption at 405 nm) boosted by NDP-MSH; assay type: cell-based; settings: for inhibition of the synthesis of melanine: with NDP-MSH, 96 hours
Experimental: (§1) B16 melanoma cells were cultured at 37° C. and 5% of CO2 in microplates with 96 wells in the presence of DMEM (Invitrogen, reference 11880028) containing 1 g/l of glucose without phenol red supplemented by 3 g/l of glucose (Sigma, reference G7021), 2 mM of L-glutamine, 50 UI/ml of penicillin, 50 μg/ml of […] (Invitrogen, reference 15070063) and 10% of fetal veal serum (Invitrogen, 10270098). After 24 h, the culture medium is replaced by a DMEM medium containing or not (control) a stable derivative of α-MSH, i.e. NDP-MSH (NLE-4-D-PHE-7-A Melanocytes Stimulating Hormone, Sigma, reference M-8764) and containing or not the peptide (compound 3 of example 1 or its N-palmitoyl derivative) according to the invention. Each peptide was tested with and without lipofectamine, (Invitrogen, reference 1538-100), an agent used to facilitate the peptide penetration. The melanocytes were then incubated for 72 hours at 37° C. and 5% of CO2.
The protocol used is the same as in example 3. The melanocytes were incubated for 96 hours at 37° C. and 5% of CO2. Kojic acid was used as a positive control.
At the end of the incubation period, the quantity of melanine was evaluated by measuring the absorption at 405 nm for each sample.

B16 melanoma cells [2] = assay: Melanocyte intracellular penetration of peptide+FITC; assay type: cell-based; settings: 72 hours
Experimental: as §1
At the end of the incubation period, the medium was eliminated and cells were rinsed with a solution of PBS (phosphate buffer saline). The penetration of each peptide was analyzed by microscopy (In Cell Analyser® 100, GE Healthcare) with the objective ×20 or by Flux Cytometry after unsticking of cells by enzymatic treatment with trypsine (Flux FACSarray, Becton Dickinson).
The following table 1 illustrates the measurement of the penetration of the peptide+FITC (fluoresceine isothiocyanate) in B16 melanocytes at different peptide concentrations (4, 20, 100 and 500 μg/ml).

[3] = test system: binding of AP-3 to the dileucine-based sorting signal containing tyrosinase; assay: BIAcore competition: binding of AP-3 to tyrosinase tail peptide; design: species or system human; settings: 200 nM adaptor, 10-1000 fold molar excess of peptide; FIG. 4
Experimental: (§2) Human tyrosinase also contains tyrosine residues in its cytoplasmic tail sequence, however they are not relevant with respect to adaptor binding. Instead, the tail contains a dileucine-based sorting signal that is bound by adaptors such as AP-2 and AP-3.
(§3) Binding between adaptors and the tyrosinase tail peptide was recorded in real-time using a BIAcore 3000 biosensor (GEHealthcare) based on surface plasmon resonance. The tyrosinase tail peptide (sequence: -[…]) (SEQ ID NO: 6) was immobilized on the surface of a CM5 sensor surface using thiol coupling and resulting in the immobilization of ≦300 RU of peptide. In brief, the CM5 surface was activated with EDC/NHS for 2 min at a flow-rate of 10 μl/min, followed by modification with PDEA for another 2 min. Subsequently, peptide was injected at a flow-rate of 5 μl/min for 1 min at a concentration of 5 μg/ml in 10 mM sodium acetate pH 4.5. The flow-rate was then adjusted to 20 μl/min and remaining active groups were blocked by injection of 50 mM cysteine, 1M NaCl. […]
(§4) For competition experiments, 200 nM adaptors were incubated with a 10-1000 fold molar excess of one of the 5 compound peptides for 10 min prior to injection. For comparison of adaptor binding to the immobilized tyrosinase tail, the RU values at the end of the injection (association period) and after the dissociation period were evaluated. […]

[4] = test system: binding of AP-2 to the dileucine-based sorting signal containing tyrosinase; assay: BIAcore competition: binding of AP-2 to tyrosinase tail peptide; design: species or system human; settings: 200 nM adaptor, 10-1000 fold molar excess of peptide; FIG. 3
Experimental: as §2, §3, §4

[5] = without lipofectamine, 20 μg/ml
[6] = without lipofectamine, 100 μg/ml
[7] = without lipofectamine, 500 μg/ml

Molecule | inhibition of the NDP-MSH induction of the synthesis of melanin (B16 melanoma cells [1]; tested between 36 and 80 μg/ml) | inhibition of the synthesis of melanine (B16 melanoma cells [1]; 6.9 μg/ml) | inhibition of the synthesis of melanine (B16 melanoma cells [1]; 15.6 μg/ml) | inhibition of the synthesis of melanine (B16 melanoma cells [1]; 36 μg/ml) | inhibition of the synthesis of melanine (B16 melanoma cells [1]; 80 μg/ml) | inhibition of the synthesis of melanine (B16 melanoma cells [1]; without lipofectamine, 0.5 μg/ml) | inhibition of the synthesis of melanine (B16 melanoma cells [1]; without lipofectamine, 1 μg/ml) | inhibition of the synthesis of melanine (B16 melanoma cells [1]; without lipofectamine, 2.5 μg/ml) | inhibition of the synthesis of melanine (B16 melanoma cells [1]; without lipofectamine, 5 μg/ml) | inhibition of the synthesis of melanine (B16 melanoma cells [1]; without lipofectamine, 10 μg/ml) | penetration of the peptide+FITC in B16 melanocytes (B16 melanoma cells [2]; with lipofectamine, 4 μg/ml) | penetration of the peptide+FITC in B16 melanocytes (B16 melanoma cells [2]; with lipofectamine, 20 μg/ml) | penetration of the peptide+FITC in B16 melanocytes (B16 melanoma cells [2]; with lipofectamine, 100 μg/ml) | penetration of the peptide+FITC in B16 melanocytes (B16 melanoma cells [2]; with lipofectamine, 500 μg/ml) | penetration of the peptide+FITC in B16 melanocytes (B16 melanoma cells [2]; without lipofectamine, 4 μg/ml) | penetration of the peptide+FITC in B16 melanocytes (B16 melanoma cells [2]; [5]) | penetration of the peptide+FITC in B16 melanocytes (B16 melanoma cells [2]; [6]) | penetration of the peptide+FITC in B16 melanocytes (B16 melanoma cells [2]; [7]) | inhibition of the binding of AP-3 to tyrosinase [3] | inhibition of the binding of AP-2 to tyrosinase [4]
O=c1cc(CO)occ1O [Kojic acid, reference compound] | sharply inhibited | −13 % of inhibition | −7 % of inhibition | 33 % of inhibition | 75 % of inhibition | – | – | – | – | – | – | – | – | – | – | – | – | – | – | –
CCCCCCCCCCCCCCCC(=O)N[C@@H](C)C(=O)N[C@@H](CCC(=O)O)C(=O)N[C@@H](CC(=O)O)C(=O)N[C@@H](CCC(=O)O)C(=O)N1CCC[C@H]1C(=O)N[C@@H](CC(C)C)C(=O)N[C@@H](CC(C)C)C(=O)N[C@@H](CCSC)C(=O)N[C@@H](CCC(=O)O)C(=O)O [N-palmitoyl derivative of compound 3] (Palmitoyl-AEDEPLLME-OH; C-terminus assumed) | – | – | – | – | – | ns * | 9 % of inhibition | 10 % of inhibition | 14 % of inhibition | 20 % of inhibition | 765 % control | 1495 % control | 1331 % control | 7726 % control | 276 % control | 364 % control | 1486 % control | 982 % control | – | –
AEDEPLLME [Compound 3, AEDEPLLME] | – | – | – | – | – | – | – | – | – | – | 166 % control | 338 % control | 1097 % control | 4265 % control | ns * | 263 % control | 533 % control | 1640 % control | – | –
AEDEPLLVD [Compound 4] | – | – | – | – | – | – | – | – | – | – | – | – | – | – | – | – | – | – | most active | most active
